Test results taken from US20040116420A1 (priority 2001, published 2004).
pIC50: −log10 of the molar value.

Experiments:
HSV-1 protease = molecular target: T1, HSV-1 protease (Human herpesvirus 1, UniProt P10210); test: Enzymatic assay for HSV-1 protease (assembly) inhibitor, fluorescence polarization; format: biochemical; conditions: read-out: HSV-1 Enzyme inhibition IC50
T1 construct: 6xHis (N); made in house; host or cells: baculovirus expression system
How it was run: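 His6-tagged HSV-1 UL26 protease, baculovirus-expressed, preincubated 30 min at RT with compound in 1 M citrate/phosphate buffer pH 7.4 with 20% glycerol and 2 mM TCEP. A biotin-HTYLQA*SERFRIK-DTAF substrate was then cleaved for 60 min at RT, stopped with avidin, and read by fluorescence polarization versus no-inhibitor control.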

Vero cells = test: Cytotoxicity, Vero cells, Alamar Blue; format: cell-based; conditions: 25 μM, 20 hours
How it was run: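 Overnight-seeded Vero cells were exposed to 25 μM compound in 2% FBS-DMEM for 20 h at 37 °C, 5% CO2. Alamar Blue was then added for about 6 h. The absorbance ratio relative to compound-free control gave the living-cell ratio.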

HSV-1 = test: Antiviral activity, HSV-1 in Vero cells, plaque method; format: cell-based; conditions: Human alphaherpesvirus 1, 20 hours, 90% inhibition of plaque formation
How it was run: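 HSV-1 (50,000 pfu in 2% FBS-DMEM) was added to Vero cells and removed, then the compound was applied in 2% FBS-DMEM for 20 h at 37° C, 5% CO2. After a freeze-thaw, virus yield in the medium was titred by plaque assay. EC90 is the concentration giving 90% plaque reduction versus the compound-free control.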

T1 sequence (P10210 1-247): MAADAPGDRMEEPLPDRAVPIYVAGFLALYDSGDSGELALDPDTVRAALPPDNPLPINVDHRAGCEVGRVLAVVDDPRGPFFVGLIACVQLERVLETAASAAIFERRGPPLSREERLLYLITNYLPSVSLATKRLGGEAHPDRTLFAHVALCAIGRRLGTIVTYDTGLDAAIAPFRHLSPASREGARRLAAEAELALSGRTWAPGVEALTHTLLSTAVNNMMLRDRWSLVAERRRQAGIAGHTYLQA

Row | Structure (SMILES) | pIC50 (HSV-1 protease) | EC90 (HSV-1) | Cell viability (% of control) (Vero cells)
1 | Cc1c(NC(=O)OC(C)(C)C)ccc2nc(N3Cc4ccccc4C[C@H]3C(=O)N(C)Cc3ccccn3)oc(=O)c12 [Compound No.98, {5-Methyl-2-[3S-(methyl-pyridin-2-yl-methylcarbamoyl)-3,4-dihydro-1H-isoquinolin-2-yl]-4-oxo-4H-benzo[d][1,3]oxazin-6-yl}-carbamic acid tert-butyl ester] | 5.21 | 5.8 µM | 46.2%
2 | Cc1c(NC(=O)OC(C)(C)C)ccc2nc(N3Cc4ccccc4C[C@H]3C(=O)N(C)CCc3ccccn3)oc(=O)c12 [Compound No.99, (5-Methyl-2-{3S-[methyl-(2-pyridin-2-yl-ethyl)-carbamoyl]-3,4-dihydro-1H-isoquinolin-2-yl}-4-oxo-4H-benzo[d][1,3]oxazin-6-yl)-carbamic acid tert-butyl ester] | 5.28 | 10.1 µM | 53.2%
3 | Cc1c(NC(=O)OC(C)(C)C)ccc2nc(N3Cc4ccccc4C[C@H]3C(=O)N(C)CCc3cccnc3)oc(=O)c12 [Compound No.100, (5-Methyl-2-{3S-[methyl-(2-pyridin-3-yl-ethyl)-carbamoyl]-3,4-dihydro-1H-isoquinolin-2-yl}-4-oxo-4H-benzo[d][1,3]oxazin-6-yl)-carbamic acid tert-butyl ester] | 5.01 | 11.8 µM | 44.1%
4 | Cc1c(NC(=O)OC(C)(C)C)ccc2nc(N3Cc4ccccc4C[C@H]3C(=O)N(C)CCc3ccncc3)oc(=O)c12 [Compound No.101, (5-Methyl-2-{3S-[methyl-(2-pyridin-4-yl-ethyl)-carbamoyl]-3,4-dihydro-1H-isoquinolin-2-yl}-4-oxo-4H-benzo[d][1,3]oxazin-6-yl)-carbamic acid tert-butyl ester] | < 4.70 | 8.4 µM | 45.5%
5 | Cc1c(NC(=O)OC(C)(C)C)ccc2nc(N3CCCC[C@H]3C(=O)N(C)CCc3ccccn3)oc(=O)c12 [Compound No.106, (5-Methyl-2-{2S-[methyl-(2-pyridin-2-yl-ethyl)-carbamoyl]-piperidin-1-yl}-4-oxo-4H-benzo[d][1,3]oxazin-6-yl)-carbamic acid tert-butyl ester] | 5.12 | > 12.5 µM | 53.3%
6 | Cc1c(NC(=O)OC(C)(C)C)ccc2nc(N3CCCC[C@H]3C(=O)N(C)CCc3cccnc3)oc(=O)c12 [Compound No.107, (5-Methyl-2-{2S-[methyl-(2-pyridin-3-yl-ethyl)-carbamoyl]-piperidin-1-yl}-4-oxo-4H-benzo[d][1,3]oxazin-6-yl)-carbamic acid tert-butyl ester] | 5.13 | > 12.5 µM | 45.4%
7 | Cc1c(NC(=O)OC(C)(C)C)ccc2nc(N3CCCC[C@H]3C(=O)N(C)CCc3ccncc3)oc(=O)c12 [Compound No.108, (5-Methyl-2-{2S-[methyl-(2-pyridin-4-yl-ethyl)-carbamoyl]-piperidin-1-yl}-4-oxo-4H-benzo[d][1,3]oxazin-6-yl)-carbamic acid tert-butyl ester] | 5.36 | > 12.5 µM | 97.9%
8 | Cc1c(NC(=O)OC(C)(C)C)ccc2nc(N3C[C@H](OCc4ccccc4)C[C@H]3C(=O)NCc3cccnc3)oc(=O)c12 [Compound No.110, (2-{4R-Benzyloxy-2S-[(pyridin-3-ylmethyl)-carbamoyl]-pyrrolidin-1-yl}-5-methyl-4-oxo-4H-benzo[d][1,3]oxazin-6-yl)-carbamic acid tert-butyl ester] | 5.20 | 7.4 µM | 71.9%
9 | Cc1c(NC(=O)OC(C)(C)C)ccc2nc(N3C[C@H](OCc4ccccc4)C[C@H]3C(=O)N(C)Cc3ccccn3)oc(=O)c12 [Compound No.113, {2-[4R-Benzyloxy-2S-(methyl-pyridin-2-ylmethyl-carbamoyl)-pyrrolidin-1-yl]-5-methyl-4-oxo-4H-benzo[d][1,3]oxazin-6-yl}-carbamic acid tert-butyl ester] | 5.00 | 8.8 µM | 71.7%
10 | Cc1c(NC(=O)OC(C)(C)C)ccc2nc(N3C[C@H](OCc4ccccc4)C[C@H]3C(=O)N(C)CCc3ccccn3)oc(=O)c12 [Compound No.114, (2-{4R-Benzyloxy-2S-[methyl-(2-pyridin-2-yl-ethyl)-carbamoyl]-pyrrolidin-1-yl}-5-methyl-4-oxo-4H-benzo[d][1,3]oxazin-6-yl)-carbamic acid tert-butyl ester] | < 5.00 | 5.9 µM | 76.5%
11 | Cc1c(NC(=O)OC(C)(C)C)ccc2nc(N3C[C@H](OCc4ccccc4)C[C@H]3C(=O)N(C)CCc3cccnc3)oc(=O)c12 [Compound No.115, (2-{4R-Benzyloxy-2S-[methyl-(2-pyridin-3-yl-ethyl)-carbamoyl]-pyrrolidin-1-yl}-5-methyl-4-oxo-4H-benzo[d][1,3]oxazin-6-yl)-carbamic acid tert-butyl ester] | < 4.70 | 6.1 µM | 71.4%
12 | Cc1c(NC(=O)OC(C)(C)C)ccc2nc(N3C[C@H](OCc4ccccc4)C[C@H]3C(=O)N(C)CCc3ccncc3)oc(=O)c12 [Compound No.116, (2-{4R-Benzyloxy-2S-[methyl-(2-pyridin-4-yl-ethyl)-carbamoyl]-pyrrolidin-1-yl}-5-methyl-4-oxo-4H-benzo[d][1,3]oxazin-6-yl)-carbamic acid tert-butyl ester] | < 5.00 | 6.5 µM | 68.2%
13 | Cc1c(NC(=O)C(C)(C)C)ccc2nc(NC(C)(C)C(=O)N(C)CCc3ccccn3)oc(=O)c12 [Compound No.136, 2,2-Dimethyl-N-(5-methyl-2-{1-methyl-1-[methyl-(2-pyridin-2-yl-ethyl)-carbamoyl]-ethylamino}-4-oxo-4H-benzo[d][1,3]oxazin-6-yl)-propionamide] | 5.35 | > 12.5 µM | 81.8%

More lines, in order of rising pIC50 (HSV-1 protease), values ahead:

Row | pIC50 (HSV-1 protease) | EC90 (HSV-1) | Structure (SMILES) | Cell viability (% of control) (Vero cells)
14 | 5.37 | > 12.5 µM | Cc1c(NC(=O)OC(C)(C)C)ccc2nc(N3CCCC[C@H]3C(=O)NCc3ccncc3)oc(=O)c12 [Compound No.104, (5-Methyl-4-oxo-2-{2S-[(pyridin-4-ylmethyl)-carbamoyl]-piperidin-1-yl}-4H-benzo[d][1,3]oxazin-6-yl)-carbamic acid tert-butyl ester] | 63.0%
15 | 5.38 | > 12.5 µM | COCC(=O)Nc1ccc2nc(NC(C)(C)C(=O)N(C)CCc3ccccn3)oc(=O)c2c1C [Compound No.137, 2-[6-(2-Methoxy-acetylamino)-5-methyl-4-oxo-4H-benzo[d][1,3]oxazin-2-ylamino]-2,N-dimethyl-N-(2-pyridin-2-yl-ethyl)-propionamide] | 98.2%
16 | 5.48 | 7.8 µM | Cc1c(NC(=O)OC(C)(C)C)ccc2nc(N3C[C@H](OCc4ccccc4)C[C@H]3C(=O)NCc3ccncc3)oc(=O)c12 [Compound No.111, (2-{4R-Benzyloxy-2S-[(pyridin-4-ylmethyl)-carbamoyl]-pyrrolidin-1-yl}-5-methyl-4-oxo-4H-benzo[d][1,3]oxazin-6-yl)-carbamic acid tert-butyl ester] | 80.4%
17 | 5.54 | > 12.5 µM | Cc1c(NC(=O)OC(C)(C)C)ccc2nc(N3CCCC[C@H]3C(=O)NCCc3ccccn3)oc(=O)c12 [Compound No.105, {5-Methyl-4-oxo-2-[2S-(2-pyridin-2-ylethylcarbamoyl)-piperidin-1-yl]-4H-benzo[d][1,3]oxazin-6-yl}-carbamic acid tert-butyl ester] | 55.6%
18 | 5.57 | 10.7 µM | Cc1c(NC(=O)OC(C)(C)C)ccc2nc(N3C[C@H](OCc4ccccc4)C[C@H]3C(=O)NCCc3ccccn3)oc(=O)c12 [Compound No.112, {2-[4R-Benzyloxy-2S-(2-pyridin-2-ylethylcarbamoyl)-pyrrolidin-1-yl]-5-methyl-4-oxo-4H-benzo[d][1,3]oxazin-6-yl}-carbamic acid tert-butyl ester] | 84.2%
19 | 5.59 | > 12.5 µM | Cc1c(NC(=O)OC(C)(C)C)ccc2nc(N3CCCC[C@H]3C(=O)NCc3cccnc3)oc(=O)c12 [Compound No.103, (5-Methyl-4-oxo-2-{2S-[(pyridin-3-ylmethyl)-carbamoyl]-piperidin-1-yl}-4H-benzo[d][1,3]oxazin-6-yl)-carbamic acid tert-butyl ester] | 68.9%
20 | 5.80 | > 12.5 µM | Cc1c(NC(=O)OC(C)(C)C)ccc2nc(N3CCCC[C@H]3C(=O)NCc3ccccn3)oc(=O)c12 [Compound No.102, (5-Methyl-4-oxo-2-{2S-[(pyridin-2-ylmethyl)-carbamoyl]-piperidin-1-yl}-4H-benzo[d][1,3]oxazin-6-yl)-carbamic acid tert-butyl ester] | 64.4%
21 | 5.85 | 8.8 µM | Cc1c(NC(=O)OC(C)(C)C)ccc2nc(N3C[C@H](OCc4ccccc4)C[C@H]3C(=O)NCc3ccccn3)oc(=O)c12 [Compound No.109, (2-{4R-Benzyloxy-2S-[(pyridin-2-ylmethyl)-carbamoyl]-pyrrolidin-1-yl}-5-methyl-4-oxo-4H-benzo[d][1,3]oxazin-6-yl)-carbamic acid tert-butyl ester] | 58.5%
